# Reference: patent publication US11028088B2, “Modulators of BTK proteolysis and methods of use” (Yale University, priority 2018, dated 2021)
# Where two headings read alike, the source gives them in different places.
# Tests used:
# BTK = BTK (Homo sapiens, UniProt Q06187); assay: BTK degradation in NAMALWA cells (immunoblot); format: cell-based; parameters: host or cells: NAMALWA; settings: for DC50: concentration needed to degrade 50% of the total pool of BTK; for Max: maximal BTK degradation
# Protocol: NAMALWA and Jurkat cell lines were purchased from ATCC and cultured according to supplier guidelines at 37° C. […] Wild-type and C481S BTK XLA cell lines were cultured as previously described (39). Written, informed consent was obtained prior to the collection of cells from CLL patients using the IWCLL2008 criteria. Isolation of mononuclear cells from peripheral blood was prepared using density gradient centrifugation. B-cells were then negatively selected ([…] Technologies). […] They were maintained at 37° C. in 5% CO2.
# Lysates were spun at 15,000×g for 10 min at 4° C. and supernatant was quantified for total protein content using the Pierce BCA Protein Assay (Thermo Fisher Scientific).
# Either anti-rabbit or anti-mouse HRP-conjugated secondary antibodies (Pierce) were incubated with the membranes for 1 h at room temperature at 1:10,000 dilutions in 5% non-fat milk in IX TBS-T. Imaging was performed using the ECL Prime chemiluminescent western blot detection reagents (Amersham) followed by visualization with the Bio-Rad ChemiDoc imaging instrument. All western blots were subsequently processed and quantified using the accompanying Bio-Rad Image Lab software. […] All antibodies were used at 1:1,000 dilutions in 5% non-fat milk in 1×TBS-Tween (TBS-T) or Blotto blocker (Thermo Scientific) unless otherwise noted in supplier specifications.
# HER3 = biological target: T1, HER3 (Homo sapiens, UniProt P21860); assay: HER3/ERBB3 degradation (western blot, OVCAR8 cells); format: cell-based
# T1 construct: endogenous in cells; host or cells: OVCAR8
# Protocol: FIG. 10 illustrates a Western blot of Compound 102-related degradation of ERBB3.
# In various embodiments, treatment with PROTAC was performed in one of two ways: 1) For experiments involving >16 h exposure to compound, a 1000× stock was added to cells followed by gentle agitation; 2) For shorter treatments, a 2× stock was added to an equal volume of cells to ensure uniform drug exposure. For immortalized cell lines, 2×10^6 cells per treatment condition were collected and washed once with ice cold PBS (IX), followed by lysis in buffer containing 20 mM Tris [pH 8.0], 0.25% sodium deoxycholate, 1% Triton X-100, supplemented with protease (Roche) and phosphatase inhibitors (10 mM NaF, 2 mM Na3VO4, 10 mM β-glycerophosphate, 10 mM Na-pyrophosphate). Lysates were spun at 15,000×g for 10 min at 4° C. and supernatant was quantified for total protein content using the Pierce BCA Protein Assay (Thermo Fisher Scientific). 30 μg of protein was loaded onto 12% SDS-PAGE gels or 4-15% Mini-PROTEAN TGX precast gradient gels (Bio-Rad), transferred onto nitrocellulose membranes, and probed with the specified primary antibodies overnight with rocking at 4° C. in 1×TBS-T containing 5% non-fat milk.
# Either anti-rabbit or anti-mouse HRP-conjugated secondary antibodies (Pierce) were incubated with the membranes for 1 h at room temperature at 1:10,000 dilutions in 5% non-fat milk in IX TBS-T. Imaging was performed using the ECL Prime chemiluminescent western blot detection reagents (Amersham) followed by visualization with the Bio-Rad ChemiDoc imaging instrument. All western blots were subsequently processed and quantified using the accompanying Bio-Rad Image Lab software. Primary antibodies used were: Anti-actin antibody (Cat. #MA 1-744) purchased from ThermoFisher Scientific; anti-BTK (Cat. #8547), anti-pBTK (Y223, Cat. #5082), anti-ITK (Cat. #2380), anti-GAPDH (Cat. #5179), anti-IKZF1 (Cat. #9034), and anti-IKZF3 (Cat. #15103) antibodies purchased from Cell Signaling Technology. All antibodies were used at 1:1,000 dilutions in 5% non-fat milk in 1×TBS-Tween (TBS-T) or Blotto blocker (Thermo Scientific) unless otherwise noted in supplier specifications.
# T1 sequence (P21860 20-1342): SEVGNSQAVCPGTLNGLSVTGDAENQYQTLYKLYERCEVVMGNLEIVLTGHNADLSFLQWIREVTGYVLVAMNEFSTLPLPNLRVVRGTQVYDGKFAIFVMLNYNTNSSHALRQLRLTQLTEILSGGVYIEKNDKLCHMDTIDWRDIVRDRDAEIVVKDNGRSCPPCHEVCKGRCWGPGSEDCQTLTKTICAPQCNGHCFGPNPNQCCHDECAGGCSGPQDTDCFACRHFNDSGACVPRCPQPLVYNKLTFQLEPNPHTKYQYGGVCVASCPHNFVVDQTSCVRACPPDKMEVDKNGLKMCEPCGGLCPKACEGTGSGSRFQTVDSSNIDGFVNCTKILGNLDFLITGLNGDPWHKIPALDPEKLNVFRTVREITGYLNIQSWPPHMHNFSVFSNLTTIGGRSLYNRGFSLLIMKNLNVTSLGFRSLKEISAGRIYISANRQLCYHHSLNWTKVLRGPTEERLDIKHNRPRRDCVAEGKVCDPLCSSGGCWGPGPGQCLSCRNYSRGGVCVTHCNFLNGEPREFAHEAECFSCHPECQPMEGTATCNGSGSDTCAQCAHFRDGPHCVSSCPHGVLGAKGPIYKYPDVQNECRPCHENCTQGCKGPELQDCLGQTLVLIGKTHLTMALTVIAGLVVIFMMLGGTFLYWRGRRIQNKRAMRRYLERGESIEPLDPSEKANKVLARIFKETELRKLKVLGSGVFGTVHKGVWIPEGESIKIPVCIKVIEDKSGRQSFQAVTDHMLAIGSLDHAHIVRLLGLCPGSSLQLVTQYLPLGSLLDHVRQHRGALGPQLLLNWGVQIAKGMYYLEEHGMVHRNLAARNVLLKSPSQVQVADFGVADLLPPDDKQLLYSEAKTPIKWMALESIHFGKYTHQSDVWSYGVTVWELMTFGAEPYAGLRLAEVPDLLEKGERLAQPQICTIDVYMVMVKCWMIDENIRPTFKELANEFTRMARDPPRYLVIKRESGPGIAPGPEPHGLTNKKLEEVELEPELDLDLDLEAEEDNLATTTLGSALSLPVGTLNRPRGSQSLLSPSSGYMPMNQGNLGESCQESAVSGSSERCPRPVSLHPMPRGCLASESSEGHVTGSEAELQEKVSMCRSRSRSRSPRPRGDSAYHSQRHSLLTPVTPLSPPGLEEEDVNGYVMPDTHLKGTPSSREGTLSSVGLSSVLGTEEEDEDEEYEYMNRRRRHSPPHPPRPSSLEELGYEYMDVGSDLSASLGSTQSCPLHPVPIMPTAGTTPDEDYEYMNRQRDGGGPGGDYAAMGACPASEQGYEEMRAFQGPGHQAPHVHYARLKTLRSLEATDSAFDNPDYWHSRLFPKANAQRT
# BTK, sequence (Q06187 whole entry): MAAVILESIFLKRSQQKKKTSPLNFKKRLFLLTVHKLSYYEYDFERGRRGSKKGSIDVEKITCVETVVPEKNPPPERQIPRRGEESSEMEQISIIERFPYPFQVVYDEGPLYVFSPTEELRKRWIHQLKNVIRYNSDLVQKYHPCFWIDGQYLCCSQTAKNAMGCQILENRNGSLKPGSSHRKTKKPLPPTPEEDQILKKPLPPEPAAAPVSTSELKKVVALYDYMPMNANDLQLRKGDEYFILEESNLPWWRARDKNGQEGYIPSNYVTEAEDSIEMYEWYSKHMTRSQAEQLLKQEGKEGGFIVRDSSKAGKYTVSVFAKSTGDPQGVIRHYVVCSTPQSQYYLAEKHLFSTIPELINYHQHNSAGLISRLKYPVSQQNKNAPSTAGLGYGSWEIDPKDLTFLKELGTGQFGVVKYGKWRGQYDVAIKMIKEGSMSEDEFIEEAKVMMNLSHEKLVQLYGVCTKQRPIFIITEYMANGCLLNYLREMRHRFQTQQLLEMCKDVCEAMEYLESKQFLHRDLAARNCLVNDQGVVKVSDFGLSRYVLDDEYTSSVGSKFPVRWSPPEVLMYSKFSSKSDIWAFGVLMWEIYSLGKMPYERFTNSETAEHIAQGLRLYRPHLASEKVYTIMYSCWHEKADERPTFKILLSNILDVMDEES
SMILES,"DC50 (BTK; NAMALWA cells, read-out: DC50) [nM]",HER3 Degradation (HER3),also measured
"Nc1ncnc2c1c(-c1ccc(Oc3ccccc3)cc1)nn2C1CCN(CCCOCCCOCCC(=O)Nc2cccc3c2C(=O)N(C2CCC(=O)NC2=O)C3=O)CC1 (stereo not drawn) [Compound 103, 3-(3-(3-(4-(4-amino-3-(4-phenoxyphenyl)-1H-pyrazolo[3,4-d]pyrimidin-1-yl)piperidin-1-yl)propoxy)propoxy)-N-(2-(2,6-dioxopiperidin-3-yl)-1,3-dioxoisoindolin-4-yl)propanamide]",68.3,No,"Max (BTK; at 1.0 μM, NAMALWA cells): 95%"
"Nc1ncnc2c1c(-c1ccc(Oc3ccccc3)cc1)nn2C1CCN(CCOCCOCCOc2ccc3c(c2)CN(C2CCC(=O)NC2=O)C3=O)CC1 (stereo not drawn) [Compound 135, 3-(5-(2-(2-(2-(4-(4-amino-3-(4-phenoxyphenyl)-1H-pyrazolo[3,4-d]pyrimidin-1-yl)piperidin-1-yl)ethoxy)ethoxy)ethoxy)-1-oxoisoindolin-2-yl)piperidine-2,6-dione]",7,–,Max (BTK; concentration not given): >99%
"Cc1ncsc1-c1ccc(CNC(=O)[C@@H]2C[C@@H](O)CN2C(=O)[C@@H](NC(=O)COCCOCCOCCOCCCCCCN2CCC(n3nc(-c4ccc(Oc5ccccc5)cc4)c4c(N)ncnc43)CC2)C(C)(C)C)cc1 [Compound 115, (2S,4R)-1-((S)-22-(4-(4-amino-3-(4-phenoxyphenyl)-1H-pyrazolo[3,4-d]pyrimidin-1-yl)piperidin-1-yl)-2,2-dimethyl-5-oxo-7,10,13,16-tetraoxa-4-azadocosanecarbonyl)-4-hydroxy-N-(4-(4-methylthiazol-5-yl)benzyl)pyrrolidine-2-carboxamide]",231,No,"Max (BTK; at 1.0 μM, NAMALWA cells): 32%"
"CN1C(=O)CCC(N2C(=O)c3ccc(NC(=O)COCCOCCN4CCC(n5nc(-c6ccc(Oc7ccccc7)cc6)c6c(N)ncnc65)CC4)cc3C2=O)C1=O (stereo not drawn) [Compound 130, 2-(2-(2-(4-(4-amino-3-(4-phenoxyphenyl)-1H-pyrazolo[3,4-d]pyrimidin-1-yl)piperidin-1-yl)ethoxy)ethoxy)-N-(2-(1-methyl-2,6-dioxopiperidin-3-yl)-1,3-dioxoisoindolin-5-yl)acetamide]",–,–,"ability to degrade BTK (BTK; NAMALWA cells, dose escalation, 24 h): neither ibrutinib nor Compound 130 were able to induce degradation of BTK"
"Cc1ncsc1-c1ccc(CNC(=O)[C@@H]2C[C@@H](O)CN2C(=O)[C@@H](NC(=O)CCCCCOCCCCCOCCCCCCN2CCC(n3nc(-c4ccc(Oc5ccccc5)cc4)c4c(N)ncnc43)CC2)C(C)(C)C)cc1 [Compound 117, (2S,4R)-1-((S)-2-(6-(5-(6-(4-(4-amino-3-(4-phenoxyphenyl)-1H-pyrazolo[3,4-d]pyrimidin-1-yl)piperidin-1-yl)hexyloxy)pentyloxy)hexanamido)-3,3-dimethylbutanoyl)-4-hydroxy-N-(4-(4-methylthiazol-5-yl)benzyl)pyrrolidine-2-carboxamide]",–,No,DC50 (BTK; NAMALWA cells): No Degradation
"Cc1ncsc1-c1ccc(CNC(=O)[C@@H]2C[C@@H](O)CN2C(=O)[C@@H](NC(=O)CCCCCOCCOCCCCCCN2CCC(n3nc(-c4ccc(Oc5ccccc5)cc4)c4c(N)ncnc43)CC2)C(C)(C)C)cc1 [Compound 112, (2S,4R)-1-((S)-2-(6-(2-(6-(4-(4-amino-3-(4-phenoxyphenyl)-1H-pyrazolo[3,4-d]pyrimidin-1-yl)piperidin-1-yl)hexyloxy)ethoxy)hexanamido)-3,3-dimethylbutanoyl)-4-hydroxy-N-(4-(4-methylthiazol-5-yl)benzyl)pyrrolidine-2-carboxamide]",–,No,DC50 (BTK; NAMALWA cells): No Degradation
"C=CC(=O)Nc1cc(-c2nn(C3CCN(CCCCCCOCCOCCOCCOCCOCC(=O)N[C@H](C(=O)N4C[C@H](O)C[C@H]4C(=O)NCc4ccc(-c5scnc5C)cc4)C(C)(C)C)CC3)c3ncnc(N)c23)ccc1Oc1ccccc1 [Compound 126, (2S,4R)-1-((S)-25-(4-(3-(3-acrylamido-4-phenoxyphenyl)-4-amino-1H-pyrazolo[3,4-d]pyrimidin-1-yl)piperidin-1-yl)-2,2-dimethyl-5-oxo-7,10,13,16,19-pentaoxa-4-azapentacosanecarbonyl)-4-hydroxy-N-(4-(4-methylthiazol-5-yl)benzyl)pyrrolidine-2-carboxamide]",–,No,–
"Nc1ncnc2c1c(-c1ccc(Oc3ccccc3)cc1)nn2C1CCN(CCOCCOCCOc2ccc3c(c2)C(=O)N(C2CCC(=O)NC2=O)C3=O)CC1 (stereo not drawn) [Compound 131, 5-(2-(2-(2-(4-(4-amino-3-(4-phenoxyphenyl)-1H-pyrazolo[3,4-d]pyrimidin-1-yl)piperidin-1-yl)ethoxy)ethoxy)ethoxy)-2-(2,6-dioxopiperidin-3-yl)isoindoline-1,3-dione]",13,–,Max (BTK; concentration not given): >99%
"C=CC(=O)Nc1cc(-c2nn(C3CCN(CCCCCCOCCCCCOCC(=O)N[C@H](C(=O)N4C[C@H](O)C[C@H]4C(=O)NCc4ccc(-c5scnc5C)cc4)C(C)(C)C)CC3)c3ncnc(N)c23)ccc1Oc1ccccc1 [Compound 124, (2S,4R)-1-((S)-2-(2-(5-(6-(4-(3-(3-acrylamido-4-phenoxyphenyl)-4-amino-1H-pyrazolo[3,4-d]pyrimidin-1-yl)piperidin-1-yl)hexyloxy)pentyloxy)acetamido)-3,3-dimethylbutanoyl)-4-hydroxy-N-(4-(4-methylthiazol-5-yl)benzyl)pyrrolidine-2-carboxamide]",–,No,–
"Cc1ncsc1-c1ccc(CNC(=O)[C@@H]2C[C@@H](O)CN2C(=O)[C@H](C(C)C)N2Cc3ccccc3C2=O)c(OCCCCOCCCCN2CCC(n3nc(-c4ccc(Oc5ccccc5)cc4)c4c(N)ncnc43)CC2)c1 [Compound 127, (2S,4R)—N-(2-(4-(4-(4-(4-amino-3-(4-phenoxyphenyl)-1H-pyrazolo[3,4-d]pyrimidin-1-yl)piperidin-1-yl)butoxy)butoxy)-4-(4-methylthiazol-5-yl)benzyl)-4-hydroxy-1-((S)-3-methyl-2-(1-oxoisoindolin-2-yl)butanoyl)pyrrolidine-2-carboxamide]",162,–,Max (BTK; concentration not given): 50%
"C=CC(=O)Nc1cc(-c2nn(C3CCN(CCCCCCOCCOCCOCC(=O)N[C@H](C(=O)N4C[C@H](O)C[C@H]4C(=O)NCc4ccc(-c5scnc5C)cc4)C(C)(C)C)CC3)c3ncnc(N)c23)ccc1Oc1ccccc1 [Compound 123, (2S,4R)-1-((S)-19-(4-(3-(3-acrylamido-4-phenoxyphenyl)-4-amino-1H-pyrazolo[3,4-d]pyrimidin-1-yl)piperidin-1-yl)-2,2-dimethyl-5-oxo-7,10,13-trioxa-4-azanonadecanecarbonyl)-4-hydroxy-N-(4-(4-methylthiazol-5-yl)benzyl)pyrrolidine-2-carboxamide]",–,No,–
"C=CC(=O)Nc1cc(-c2nn(C3CCN(CCCCCCOCCOCCOCCOCC(=O)N[C@H](C(=O)N4C[C@H](O)C[C@H]4C(=O)NCc4ccc(-c5scnc5C)cc4)C(C)(C)C)CC3)c3ncnc(N)c23)ccc1Oc1ccccc1 [Compound 125, (2S,4R)-1-((S)-22-(4-(3-(3-acrylamido-4-phenoxyphenyl)-4-amino-1H-pyrazolo[3,4-d]pyrimidin-1-yl)piperidin-1-yl)-2,2-dimethyl-5-oxo-7,10,13,16-tetraoxa-4-azadocosanecarbonyl)-4-hydroxy-N-(4-(4-methylthiazol-5-yl)benzyl)pyrrolidine-2-carboxamide]",–,No,–
